{"source": "patent US20240199604A1", "about": "“SUPRAMOLECULAR POLYMER THERAPEUTICS AND DIAGNOSTICS” (The Regents of the University of California, priority 2022, published 2024)", "key": {"[1]": {"system": "tau paired-helical filaments (PHFs)", "experiment": "Cryo-EM co-structure with Alzheimer's disease tau paired helical filaments", "type": "binding, human", "conditions": "AD tau PHF incubated with 20 uM GTP-1, cryo-EM", "description": "Samples were incubated with 20 uM GTP-1 prior to vitrification. […] The micrograph images and their 2D classification reveal well-resolved filaments primarily in the PHF conformation, with crossover distances ranging from 700-800 Å. A minor population of straight filaments (SF) was also identified; however, further structural characterization was not feasible due to limited abundance. […] The PHF structure is comprised of two protofilaments related by two-fold symmetry with a 2.37 Å rise and 179.450 twist, consistent with previously reported structures of PHFs prepared from AD brains (13, 15). […]\nCryo-EM sample preparation and data collection. […] For the tau PHF, 3 μL of purified filaments mixed with GTP-1 was added to a glow-discharged 200 mesh 1.2/1.3R Au Quantifoil grid for 10 seconds before blotting for 2 seconds, and then a second 3 μL aliquot was added for 3 seconds and blotted for 1 second before being plunge frozen in liquid ethane using a FEI Vitrobot Mark IV (Thermo Fisher Scientific). For the synuclein ligands, 3 μL of purified filaments mixed with compound was added to a 200 mesh 1.2/1.3R Au Quantifoil grid coated with a 2 nm thick layer of carbon, which had not been glow discharged. […]"}, "[2]": {"target": "T1, α-synuclein fibrils isolated from an MSA patient sample (Homo sapiens, UniProt P37840)", "T1 construct": "fresh-frozen tissue from the cerebellum of patients clinically and neuropathologically diagnosed with MSA; from tissue; host or cells: cerebellum of MSA patients (sarkosyl-insoluble fraction)", "experiment": "Cryo-EM co-structure with α-synuclein fibrils from MSA patient samples", "type": "binding", "conditions": "for co-structure of supramolecular polymeric inhibitor with α-synuclein fibrils: fibrils from MSA patient sample, cryoelectronic microscopy", "description": "MSA filament purification. Filament purification was based on Schweigenhauser et al., 2020^2. Briefly, 1-2 g of fresh-frozen tissue from the cerebellum of patients clinically and neuropathologically diagnosed with MSA was homogenized at 20 mL/g of tissue in 10 mM Tris-HCl (pH 7.4), 800 mM NaCl, 1 mM EGTA, and 10% sucrose. A final concentration of 1% N-laurosarcosinate (w/v) was added to the homogenates, and these mixtures were incubated at 37° C. for 30 minutes. Homogenates were then centrifuged at 10,000 g for 10 minutes, and the supernatant was kept and then centrifuged at 100,000 g for 20 minutes. The pellets were resuspended at 500 μL/g of frozen tissue in 10 mM Tris-HCl (pH 7.4), 800 mM NaCl, 1 mM EGTA, and 10% sucrose. This was followed by another centrifugation at 3,000 g for 5 minutes. The supernatant was kept and diluted threefold with 50 mM Tris-HCl (pH 7.4), 150 mM NaCl, 10% sucrose, and 2% sarkosyl, followed by another centrifugation at 150,000 g for 1 hour. The final pellet resuspended in 30 mM Tris-HCl (pH 7.4) at a concentration of […] frozen tissue.\nCryo-EM sample preparation and data collection. Purified frontal cortex and cerebellum tissue was incubated with 20 μM ligand for 45 minutes prior to freezing. For the tau PHF, 3 μL of purified filaments mixed with GTP-1 was added to a glow-discharged 200 mesh 1.2/1.3R Au Quantifoil grid for 10 seconds before blotting for 2 seconds, and then a second 3 μL aliquot was added for 3 seconds and blotted for 1 second before being plunge frozen in liquid ethane using a FEI Vitrobot Mark IV (Thermo Fisher Scientific). For the synuclein ligands, 3 μL of purified filaments mixed with compound was added to a 200 mesh 1.2/1.3R Au Quantifoil grid coated with a 2 nm thick layer of carbon, which had not been glow discharged. After 30 seconds, grids were blotted for 7.5 seconds at room temperature and 100% humidity. Grids were plunge frozen in liquid ethane using a FEI Vitrobot Mark IV. […] A defocus range of 0.8 to 1.8 μm was used with a total exposure time of 2.024 seconds fractionated into 0.025 seconds subframes. The total dose for each movie was 46 electrons/Å^2. Movies were motion-corrected using MotionCor2^3 in Scipion^4 and were Fourier cropped by a factor of 2 to a final pixel size of 0.834 Å per pixel.\nImage processing. All image processing was done in RELION 4^5, and the same workflow was used for each dataset. Dose-weighted summed micrographs were imported into RELION 4. The contrast transfer function was estimated using CTFFIND-4.1^6. Filaments were manually picked and then segments were extracted with a box size of 900 pixels downscaled to 300 pixels. Contaminants and segments contributing to straight filaments were separated out using reference-free 2D class averaging. The remaining segments were re-extracted with a box size of 288 pixels without downscaling. An initial model was generated from a cylinder in RELION. One or more rounds of 3D classification with image alignment were performed, with helical rise and […] parameters fixed to eliminate obvious junk particles. One or more rounds of 3D auto-refinement was run using the best map from 3D classification low-pass filtered to 10 Å, allowing rise and twist parameters to vary. Maps were sharpened using the standard post-processing procedures in RELION.\nModel building, refinement, and analysis. Prior to ligand placement, a single strand of a previously solved MSA or tau PHF filament stutr^2 (PDB: 6XYQ) was refined against the density using Phenix^7. Refinement of the ligand binding pocket was done in COOT^8. Ligands were placed by hand in the density using Chimera^9. This model was then translated to give a stack spanning 5 rungs."}}, "data": [{"smiles": "[2H]C([2H])([18F])CC1CCN(c2ccn3c(n2)nc2ccccc23)CC1", "note": "[GTP-1]", "values": [{"measurement": "binding site on tau filament", "setting": "[1]", "result": "bound to a solvent exposed cleft (residues 351-360)"}]}, {"smiles": "CNC(=O)c1ncc2c(-c3ccnc(C(C)(F)F)n3)nn(-c3ccc(Cl)cc3)c2n1", "note": "[Compound 22, 1-(4-chlorophenyl)-3-(2-(1,1-difluoroethyl)pyrimidin-4-yl)-N-methyl-1H-pyrazolo[3,4-d]pyrimidine-6-carboxamide]", "values": [{"measurement": "co-structure of supramolecular polymeric inhibitor with α-synuclein fibrils", "setting": "[2]", "result": "bound to fibrils isolated from an MSA patient sample"}, {"measurement": "binding site on α-synuclein fibril", "setting": "[2]; α-synuclein fibril from an MSA patient, SEQ ID NO: 9", "result": "bound to residues 86-99"}]}, {"smiles": "O=C(Cn1cc(-c2ccoc2)c(=O)c2ccc(N3CCCC3)cc21)Nc1ccccc1C(F)(F)F", "note": "[Compound 149, 2-[3-(furan-3-yl)-4-oxo-7-(pyrrolidin-1-yl)-1,4-dihydroquinolin-1-yl]-N-[2-(trifluoromethyl)phenyl]acetamide]", "values": [{"measurement": "co-structure of supramolecular polymeric inhibitor with α-synuclein fibrils", "setting": "[2]", "result": "bound to fibrils isolated from an MSA patient sample"}]}, {"smiles": "CNc1nc(=O)n(-c2nc(-c3cccc(Cl)c3)oc2-c2ccc(Cl)c(F)c2)cc1F", "note": "[Compound 125, 1-(5-(4-chloro-3-fluorophenyl)-2-(3-chlorophenyl)oxazol-4-yl)-5-fluoro-4-(methylamino)pyrimidin-2 (1H)-one]", "values": [{"measurement": "co-structure of supramolecular polymeric inhibitor with α-synuclein fibrils", "setting": "[2]", "result": "bound to fibrils isolated from an MSA patient sample"}]}, {"smiles": "CNc1nc(=O)n(-c2nc(-c3cccc(C)c3)oc2-c2ccc(Cl)c(F)c2)cc1F", "note": "[Compound 83, 1-(5-(4-chloro-3-fluorophenyl)-2-(m-tolyl)oxazol-4-yl)-5-fluoro-4-(methylamino)pyrimidin-2 (1H)-one]", "values": [{"measurement": "co-structure of supramolecular polymeric inhibitor with α-synuclein fibrils", "setting": "[2]", "result": "bound to fibrils isolated from an MSA patient sample"}]}, {"smiles": "CNc1nc(=O)n(-c2nc(-c3cc(C)cc(C)n3)oc2-c2ccc(F)c(F)c2)cc1F", "note": "[compound 294]", "values": [{"measurement": "co-structure of supramolecular polymeric inhibitor with α-synuclein fibrils", "setting": "[2]", "result": "bound to fibrils isolated from an MSA patient sample"}]}, {"smiles": "O=c1nc2c(ccn2C(F)(F)F)cn1-c1nc(-c2ccnc(C3CC3)n2)oc1-c1ccc(F)cc1", "note": "[compound 293]", "values": [{"measurement": "co-structure of supramolecular polymeric inhibitor with α-synuclein fibrils", "setting": "[2]", "result": "bound to fibrils isolated from an MSA patient sample"}]}]}
